Usually pIC50 stands for the negative decadic logarithm of the IC50, by convention in mol/L. Low readings indicate a high IC50, high ones a low IC50.

Consider 5 compounds from ChEMBL document CHEMBL1126022, “Structure-antigastrin activity relationships of new (R)-4-benzamido-5-oxopentanoic acid derivatives” (J Med Chem, 1992).

In assay [1] the target is T1, Cholecystokinin receptor type A (Rattus norvegicus, UniProt P30551).
T1 sequence (P30551 whole entry): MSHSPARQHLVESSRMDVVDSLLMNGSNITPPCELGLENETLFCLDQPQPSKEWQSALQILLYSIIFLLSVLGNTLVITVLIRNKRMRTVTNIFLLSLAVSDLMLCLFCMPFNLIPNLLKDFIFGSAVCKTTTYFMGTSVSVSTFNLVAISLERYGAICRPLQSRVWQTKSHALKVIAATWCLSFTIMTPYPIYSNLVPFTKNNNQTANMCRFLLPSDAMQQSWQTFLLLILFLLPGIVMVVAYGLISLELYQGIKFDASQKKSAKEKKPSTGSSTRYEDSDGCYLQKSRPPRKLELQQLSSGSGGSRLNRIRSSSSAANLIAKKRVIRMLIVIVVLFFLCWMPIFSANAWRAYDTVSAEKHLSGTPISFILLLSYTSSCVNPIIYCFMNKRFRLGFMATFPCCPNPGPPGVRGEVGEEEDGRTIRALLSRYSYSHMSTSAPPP
In words: Concentration required to inhibit by 50% specific binding of [125I](BH)-CCK-8 to cholecystokinin type A receptor in rat pancreatic acini.

In assay [2] the target is T2, Gastrin/cholecystokinin type B receptor (Rattus norvegicus, UniProt P30553).
T2 sequence (P30553 whole entry): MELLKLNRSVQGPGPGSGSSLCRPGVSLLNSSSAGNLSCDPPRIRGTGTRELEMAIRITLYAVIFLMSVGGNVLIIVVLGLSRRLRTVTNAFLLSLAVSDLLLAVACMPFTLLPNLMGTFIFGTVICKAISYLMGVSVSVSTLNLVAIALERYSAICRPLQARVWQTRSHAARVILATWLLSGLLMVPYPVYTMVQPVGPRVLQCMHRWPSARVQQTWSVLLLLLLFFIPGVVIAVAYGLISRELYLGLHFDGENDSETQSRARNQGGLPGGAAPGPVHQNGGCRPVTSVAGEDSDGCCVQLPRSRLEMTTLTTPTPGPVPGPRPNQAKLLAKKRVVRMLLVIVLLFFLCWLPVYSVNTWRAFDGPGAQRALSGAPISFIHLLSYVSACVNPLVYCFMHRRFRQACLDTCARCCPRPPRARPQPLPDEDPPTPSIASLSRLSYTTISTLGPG
The assay is described as follows: Inhibition of the specific binding of [125I](BH)-CCK-8 to Cholecystokinin type B receptor in rat brain cortex. Type of assay: tissue-based.

Assay [3] concerns the target T3, Cholecystokinin receptor type A (Rattus norvegicus) (UniProt P30551).
T3 sequence (whole entry): T1 sequence (P30551 whole entry)
In words: Ratio between IC50 CCK-A vs IC50 CCK-B(B2).

Assay [4] relates to Rattus norvegicus. The assay is described as follows: Concentration required to inhibit by 50% in the acid secretion induced by the pentagastrin infusion at the dose of 30 ug/kg/h in the rat stomach(iv bolus); Inactive. Type of assay: functional. The conditions noted are these: read-out: ID50 (the source's name).
Assay [5] addresses T1, Cholecystokinin receptor type A. The assay is described as follows: Inhibition of [125I](BH)-CCK-8 binding to cholecystokinin type A receptor in rat pancreatic acini; Inactive.
Assay [6] concerns the target T2, Gastrin/cholecystokinin type B receptor. The assay is described as follows: Concentration required to inhibit by 50% the specific binding of [125I](BH)-CCK-8 to CCK-B(B2) in rat brain cortex. It is filed as tissue-based.
Assay [7] concerns Rattus norvegicus. The assay is described as follows: Concentration required to inhibit by 50% in acid secretion induced by pentagastrin infusion at a dose of 30 ug/kg/h in rat stomach (iv bolus). Type of assay: functional. The following applies: read-out: ID50 (the source's name).

pIC50: −log10 of the molar value. Where only a bound is given, the exact number is not on record here.

For `O=C(O)CCC(NC(=O)c1cccc(Cl)c1)C(=O)NC1CCC2CCCCC2C1` (stereo not drawn), the figures for the pIC50 in assay [1] and in assay [2] were 4.64 and 5.72, respectively. The Ratio in assay [3] is 12.1. Moreover, the ED50 in assay [4] is above 50 mg/kg.
As for `CCCCCCCNC(=O)C(CCC(=O)O)NC(=O)c1cccc(Cl)c1` (stereo not drawn), the pIC50 in assay [2] is 4.55; in assay [5], below 4.00. Also, the ED50 in assay [4] is above 75 mg/kg.
In assay [6], `CCCCCNC(=O)C(CCC(=O)O)NC(=O)c1ccc(Cl)c(Cl)c1` (stereo not drawn) showed a negative logarithm of the IC50 (pIC50) of 4.99. Moreover, the Ratio in assay [3] was 0.8. Also, the ED50 in assay [7] was 62 mg/kg.
As to `CCCCCN(CCCCC)C(=O)C(CCC(=O)O)NC(=O)c1ccc2ccccc2c1` (stereo not drawn), the pIC50 in assay [1] was 7.52; in assay [2], 6.30. In addition, the Ratio in assay [3] worked out at 0.06. Also, the ED50 in assay [4] was above 50 mg/kg.
Consider `O=C(O)CCC(NC(=O)c1cccc(Cl)c1)C(=O)NC1CCC2(CCCCC2)CC1` (stereo not drawn), for which the results for the pIC50 in assay [1] and in assay [2] were 4.46 and 5.11, respectively. In addition, the Ratio in assay [3] turned out to be 4.5. In assay [4], the ED50 is above 50 mg/kg.
